Row | Structure (SMILES) | logP
1 | CC(C)NCCCC1(C(N)=O)c2ccccc2-c2ccccc21 | 3.11
2 | CC(C)(C)c1cc(C(O)CCC2CCNCC2)c2ccccc2n1 (configuration not stated) | 3.63
3 | CN1CCN(CCCN2c3ccccc3Sc3ccccc32)CC1 | 4
4 | CCN1CCCC1CNC(=O)c1cc(S(=O)(=O)CC)c(N)cc1OC (configuration not stated) | 1.1
5 | O=C(NCC1CCCCN1)c1cc(OCC(F)(F)F)ccc1OCC(F)(F)F (configuration not stated) | 3.78
6 | CC(=O)Oc1c(C)cc(OCC(O)CNC(C)C)c(C)c1C (configuration not stated) | 2.66
7 | C=CCN1CCCC1CNC(=O)c1cc2nn[nH]c2cc1OC (configuration not stated) | 1.79
8 | CC(C)(C)NCC(O)COc1ccccc1C#N (configuration not stated) | 1.6
9 | CCN1CCCC1CNC(=O)c1cc(S(=O)(=O)CC)ccc1OC (configuration not stated) | 1.06
10 | C=CCN1CCCC1CNC(=O)c1cc(S(N)(=O)=O)cc(OC)c1OC (configuration not stated) | 1.47
11 | CNC(=O)Nc1c(OCCN2CCCC2)c(OC)c2occc2c1OC | 1.38
12 | CC(C)NCC(O)COc1cccc2c1N(C(=O)c1cccnc1)CCC2 (configuration not stated) | 1.63

Source: the OPERA property sets (Mansouri et al. 2018)
